According to paper PMC6268188, “Comparative Studies of the (Anti) Mutagenicity of Baccharis dracunculifolia and Artepillin C by the Bacterial Reverse Mutation Test” (Molecules, 2012):
Several values for one entry are separate records, joined by “and”; a condition that tells them apart may be missing. Identical values can stand only once. Like-named read-outs stand apart in the source and are kept apart here.

Legend:
S. typhimurium TA102 = experiment: Antimutagenicity assay (Ames test with known mutagens), strain TA102; assay type: cell-based, Salmonella typhimurium
[1] = system: DNA damage induced by methyl methanesulfonate and doxorubicin; conditions: micronucleus and comet assays; cited from earlier work
[2] = 0.69 µg/plate + AF 10.0 μg/plate, TA 102, + S9
[3] = 1.37 µg/plate + AF 10.0 μg/plate, TA 102, + S9
[4] = 1.37 µg/plate + MMC 0.5 μg/plate, TA 102, − S9
[5] = 2.75 µg/plate + AF 10.0 μg/plate, TA 102, + S9
[6] = 2.75 µg/plate + MMC 0.5 μg/plate, TA 102, − S9
[7] = 5.49 µg/plate + AF 10.0 μg/plate, TA 102, + S9
[8] = 5.49 µg/plate + MMC 0.5 μg/plate, TA 102, − S9
[9] = […] + AF 10.0 μg/plate, TA 102, + S9
[10] = […] + MMC 0.5 μg/plate, TA 102, − S9

## CC(C)=CCc1cc(/C=C/C(=O)O)cc(CC=C(C)C)c1O [ArtC, 3-{4-hydroxy-3,5-di(3-methyl-2-butenyl)phenyl}-2(E)-propenoic acid]
S. typhimurium TA102
  Number of revertants (M ± SD)/ plate: 879 ± 11 revertants/plate and 529 ± 20 revertants/plate
S. typhimurium TA102; [2]
  % inhibition: 41%
  Number of revertants (M ± SD)/ plate: 645 ± 23 revertants/plate
  antimutagenic effect class: *** (strong antimutagenic effect (> 40% inhibition))
S. typhimurium TA102; 0.69 µg/plate + MMC 0.5 μg/plate, TA 102, − S9
  Number of revertants (M ± SD)/ plate: 1096 ± 19 revertants/plate
S. typhimurium TA102; [3]
  % inhibition: 46%
  Number of revertants (M ± SD)/ plate: 595 ± 25 revertants/plate
  antimutagenic effect class: *** (strong antimutagenic effect (> 40% inhibition))
S. typhimurium TA102; [4]
  % inhibition: 5%
  Number of revertants (M ± SD)/ plate: 1022 ± 18 revertants/plate
  antimutagenic effect class: * (no antimutagenic effect (< 25% inhibition))
S. typhimurium TA102; [5]
  % inhibition: 48%
  Number of revertants (M ± SD)/ plate: 566 ± 17 revertants/plate
  antimutagenic effect class: *** (strong antimutagenic effect (> 40% inhibition))
S. typhimurium TA102; [6]
  % inhibition: 7%
  Number of revertants (M ± SD)/ plate: 994 ± 25 revertants/plate
  antimutagenic effect class: * (no antimutagenic effect (< 25% inhibition))
S. typhimurium TA102; [7]
  % inhibition: 56%
  Number of revertants (M ± SD)/ plate: 488 ± 14 revertants/plate
  antimutagenic effect class: *** (strong antimutagenic effect (> 40% inhibition))
S. typhimurium TA102; [8]
  % inhibition: 12%
  Number of revertants (M ± SD)/ plate: 943 ± 17 revertants/plate
  antimutagenic effect class: * (no antimutagenic effect (< 25% inhibition))
S. typhimurium TA102; TA102, MMC
  effect on MMC-induced mutagenicity: did not affect
S. typhimurium TA102; [9]
  % inhibition: 52%
  antimutagenic effect class: *** (strong antimutagenic effect (> 40% inhibition))
S. typhimurium TA102; [10]
  % inhibition: 18%
  antimutagenic effect class: * (no antimutagenic effect (< 25% inhibition))
[1]
  protection against DNA damage: able to protect against DNA damage
